A word on the IC50: it is the concentration that inhibits the measured activity by half.

Consider 28 compounds from patent publication US20230128402A1 (The Trustees of Princeton University, priority 2020, published 2023).

Where only a bound is given, the exact number is not on record here.

In one experiment the target is T1, mALDH1a3 (Mus musculus, UniProt Q9JHW9).
T1 construct: made in house; host or cells: E. coli BL21-DE3, pET-Aldh1a3
T1 sequence (Q9JHW9 1-512): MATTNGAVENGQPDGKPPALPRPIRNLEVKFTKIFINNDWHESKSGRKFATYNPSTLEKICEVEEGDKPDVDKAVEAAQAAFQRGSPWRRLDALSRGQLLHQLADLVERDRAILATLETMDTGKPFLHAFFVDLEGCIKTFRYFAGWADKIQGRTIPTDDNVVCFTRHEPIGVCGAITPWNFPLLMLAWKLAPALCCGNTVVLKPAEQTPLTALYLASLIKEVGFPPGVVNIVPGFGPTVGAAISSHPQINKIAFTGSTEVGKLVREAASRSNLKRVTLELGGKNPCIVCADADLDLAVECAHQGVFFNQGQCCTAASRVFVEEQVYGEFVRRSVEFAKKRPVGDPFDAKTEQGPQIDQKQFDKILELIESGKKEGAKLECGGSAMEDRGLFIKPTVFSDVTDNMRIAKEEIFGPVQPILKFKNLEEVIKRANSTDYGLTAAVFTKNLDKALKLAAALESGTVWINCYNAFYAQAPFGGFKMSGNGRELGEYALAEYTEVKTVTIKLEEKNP
Description: Aldh1a3 enzyme inhibition assay, recombinant mALDH1a3. It counts as biochemical. The conditions noted are these: resorufin fluorescence, 20° C. From the text: (§1) Recombinant enzyme and inhibitor added immediately before assay. Reaction rate measured by resorufin fluorescence.

Another experiment deals with T2, ALDH1a3 (Homo sapiens, UniProt P47895).
T2 sequence (P47895 1-512): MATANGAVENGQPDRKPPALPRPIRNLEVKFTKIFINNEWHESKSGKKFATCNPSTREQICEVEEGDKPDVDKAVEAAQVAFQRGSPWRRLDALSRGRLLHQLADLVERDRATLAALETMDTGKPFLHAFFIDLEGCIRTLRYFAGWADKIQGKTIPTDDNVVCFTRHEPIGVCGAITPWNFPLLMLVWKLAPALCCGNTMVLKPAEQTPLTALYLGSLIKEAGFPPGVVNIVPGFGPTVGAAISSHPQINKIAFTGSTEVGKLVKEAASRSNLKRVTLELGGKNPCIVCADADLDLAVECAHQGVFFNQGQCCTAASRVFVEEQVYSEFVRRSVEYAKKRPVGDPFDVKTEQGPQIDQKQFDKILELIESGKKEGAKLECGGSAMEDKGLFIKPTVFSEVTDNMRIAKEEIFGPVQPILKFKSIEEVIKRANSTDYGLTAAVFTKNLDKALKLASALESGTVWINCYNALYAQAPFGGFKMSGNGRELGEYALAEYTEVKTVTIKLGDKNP
Kind of experiment: Aldh1a3 enzyme inhibition assay, recombinant hALDH1a3. Set-up: made in house; host or cells: E. coli BL21-DE3, pET-Aldh1a3. It is filed as biochemical. The note with it: resorufin fluorescence, 20° C.
Source text: as §1

In the case of `CCc1c(C(=O)Nc2ccc3c(c2)CCC(=O)N3)ccnc1C` [Compound 55, 3-ethyl-2-methyl-N-(2-oxo-3,4-dihydro-1H-quinolin-6-yl)pyridine-4-carboxamide], the IC50 at mALDH1a3 and at ALDH1a3 was 250 to 1000 nM each time.

Regarding `CCc1cnc(C)cc1C(=O)Nc1ccc2c(c1)CCC(=O)N2` [Compound 56, 5-ethyl-2-methyl-N-(2-oxo-3,4-dihydro-1H-quinolin-6-yl)pyridine-4-carboxamide], the IC50 was 250 to 1000 nM at mALDH1a3 and 100 to 250 nM at ALDH1a3.

As to `COCc1cnccc1C(=O)Nc1ccc2c(c1)CCC(=O)N2` [Compound 57, 3-(methoxymethyl)-N-(2-oxo-3,4-dihydro-1H-quinolin-6-yl)pyridine 4 carboxamide], the IC50 at mALDH1a3 and at ALDH1a3 was over 5000 nM in each case.

Take `CN(C)Cc1cnccc1C(=O)Nc1ccc2c(c1)CCC(=O)N2` [Compound 58, 3-[(dimethylamino)methyl]-N-(2-oxo-3,4-dihydro-1H-quinolin-6-yl)pyridine-4-carboxamide]: the IC50 on mALDH1a3 and on ALDH1a3 was over 5000 nM throughout.

Take `CCCc1cnccc1C(=O)Nc1ccc2c(c1)CCC(=O)N2` [Compound 60, N-(2-oxo-3,4-dihydro-1H-quinolin-6-yl)-3-propyl-pyridine-4-carboxamide]: the IC50 was 250 to 1000 nM at mALDH1a3 and 100 to 250 nM on ALDH1a3.

As for `CCc1cnccc1C(=O)Nc1ccc2c(c1)CC1(CC1)C(=O)N2` [Compound 61, 3-ethyl-N-(2-oxospiro[1,4-dihydroquinoline-3,1′-cyclopropane]-6-yl)pyridine-4-carboxamide], the IC50 on mALDH1a3 is 1000 to 5000 nM; on ALDH1a3 it was 100 to 250 nM.

`CCc1cnccc1C(=O)Nc1ccc2c(c1)CC(C)(CC)C(=O)N2` (centres unmarked) [Compound 62, 3-ethyl-N-(3-ethyl-3-methyl-2-oxo-1,4-dihydroquinolin-6-yl)pyridine-4-carboxamide]: the IC50 at mALDH1a3 was over 5000 nM; at ALDH1a3 it was 1000 to 5000 nM.

Turning to `CCc1cnccc1C(=O)Nc1ccc2c(c1)CC(C)C(=O)N2` (centres unmarked) [Compound 63, 3-ethyl-N-(3-methyl-2-oxo-3,4-dihydro-1H-quinolin-6-yl)pyridine-4-carboxamide], the IC50 on mALDH1a3 is 250 to 1000 nM; at ALDH1a3, 100 to 250 nM.

For `CCc1cnccc1C(=O)Nc1ccc2c(c1)C(C)CC(=O)N2` (centres unmarked) [Compound 64, 3-ethyl-N-(4-methyl-2-oxo-3,4-dihydro-1H-quinolin-6-yl)pyridine-4-carboxamide], the IC50 at mALDH1a3 lay within 250 to 1000 nM; at ALDH1a3 it was 100 to 250 nM.

For the compound `Cc1cc(C(=O)Nc2ccc3c(c2)CC2(CC2)C(=O)N3)c(Cl)cn1` [Compound 68], the IC50 at mALDH1a3 was over 5000 nM; at ALDH1a3, 1000 to 5000 nM.

For the compound `CC(C)=Cc1cnc(C)cc1C(=O)Nc1ccc2c(c1)CC(C)(C)C(=O)N2` [Compound 69], the IC50 at mALDH1a3 and at ALDH1a3 was over 5000 nM each time.

Turning to `CCc1cnccc1C(=O)Nc1cc2c(cc1Cl)NC(=O)CC2` [Compound 70, N-(7-chloro-2-oxo-3,4-dihydro-1H-quinolin-6-yl)-3-ethyl-pyridine-4-carboxamide], the results for the IC50 at mALDH1a3 and at ALDH1a3 were 250 to 1000 nM and under 100 nM, respectively.

Regarding `C=CCc1cnccc1C(=O)Nc1ccc2c(c1)CCC(=O)N2` [Compound 71, 3-allyl-N-(2-oxo-3,4-dihydro-1H-quinolin-6-yl)pyridine-4-carboxamide], the IC50 on mALDH1a3 was 1000 to 5000 nM; on ALDH1a3, 250 to 1000 nM.

Regarding `CCc1cccnc1C(=O)Nc1cc2c(cc1Cl)NC(=O)CC2` [Compound 72, N-(7-chloro-2-oxo-3,4-dihydro-1H-quinolin-6-yl)-3-ethyl-pyridine-2-carboxamide], the IC50 at mALDH1a3 and at ALDH1a3 was 250 to 1000 nM throughout.

With `CCc1c[n+]([O-])ccc1C(=O)Nc1ccc2c(c1)CCC(=O)N2` [Compound 73, 3-ethyl-1-oxido-N-(2-oxo-3,4-dihydro-1H-quinolin-6-yl)pyridin-1-ium-4-carboxamide], the values for the IC50 on mALDH1a3 and on ALDH1a3 were over 5000 nM and 1000 to 5000 nM, respectively.

Turning to `CCc1cc(=O)n(C)cc1C(=O)Nc1ccc2c(c1)CCC(=O)N2` [Compound 76, 4-ethyl-1-methyl-6-oxo-N-(2-oxo-3,4-dihydro-1H-quinolin-6-yl)pyridine-3-carboxamide], the IC50 on mALDH1a3 and on ALDH1a3 was over 5000 nM in each case.

Regarding `CCc1cnc(F)cc1C(=O)Nc1ccc2c(c1)CCC(=O)N2` [Compound 78, 5-ethyl-2-fluoro-N-(2-oxo-3,4-dihydro-1H-quinolin-6-yl)pyridine-4-carboxamide], the IC50 on mALDH1a3 was 250 to 1000 nM; on ALDH1a3 it was under 100 nM.

Regarding `CCc1cnc(C)cc1C(=O)Nc1cc2c(cc1F)NC(=O)CC2` [Compound 79, 5-ethyl-N-(7-fluoro-2-oxo-3,4-dihydro-1H-quinolin-6-yl)-2-methyl-pyridine-4 carboxamide], the IC50 at mALDH1a3 and at ALDH1a3 was 250 to 1000 nM throughout.

`CCc1cnc(Cl)cc1C(=O)Nc1cc2c(cc1F)NC(=O)CC2` [Compound 80, 2-chloro-5-ethyl-N-(7-fluoro-2-oxo-3,4-dihydro-1H-quinolin-6-yl)pyridine-4-carboxamide]: the IC50 is 250 to 1000 nM at mALDH1a3 and under 100 nM on ALDH1a3.

Turning to `O=C1CCc2cc(NC(=O)c3ccncc3CC3CC3)c(F)cc2N1` [Compound 81, 3-(cyclopropylmethyl)-N-(7-fluoro-2-oxo-3,4-dihydro-1H-quinolin-6-yl)pyridine-4-carboxamide], the IC50 at mALDH1a3 and at ALDH1a3 was under 100 nM throughout.

As for `CCc1cnccc1C(=O)Nc1cc2c(cc1C#N)NC(=O)CC2` [Compound 84, N-(7-cyano-2-oxo-3,4-dihydro-1H-quinolin-6-yl)-3-ethyl-pyridine-4-carboxamide], the IC50 at mALDH1a3 and at ALDH1a3 was 250 to 1000 nM throughout.

As to `CCc1cnccc1C(=O)Nc1ccc2c(c1F)CCC(=O)N2` [Compound 85], the IC50 at mALDH1a3 and at ALDH1a3 was over 5000 nM each time.

With `N#Cc1cccc2nc(Nc3ccc4c(c3)CCC(=O)N4)ccc12` [Compound 86, 2-[(2-oxo-3,4-dihydro-1H-quinolin-6-yl)amino]quinoline-5-carbonitrile], the values for the IC50 at mALDH1a3 and at ALDH1a3 were 1000 to 5000 nM and over 5000 nM, respectively.

For the compound `Cc1cccc2nc(Nc3ccc4c(c3)CCC(=O)N4)ccc12` [Compound 87, 6-[(5-methyl-2-quinolyl)amino]-3,4-dihydro-1H-quinolin-2-one], the IC50 at mALDH1a3 is under 100 nM; on ALDH1a3, 250 to 1000 nM.

On to `N#Cc1ccc2nc(Nc3ccc4c(c3)CCC(=O)N4)ccc2c1` [Compound 88, 2-[(2-oxo-3,4-dihydro-1H-quinolin-6-yl)amino]quinoline-6-carbonitrile], for which the IC50 on mALDH1a3 and on ALDH1a3 was over 5000 nM in each case.

Take `Cc1ccc2nc(Nc3ccc4c(c3)CCC(=O)N4)ccc2c1` [Compound 89, 6-[(6-methyl-2-quinolyl)amino]-3,4-dihydro-1H-quinolin-2-one]: the IC50 on mALDH1a3 was 1000 to 5000 nM; at ALDH1a3, over 5000 nM.

Regarding `N#Cc1ccc2ccc(Nc3ccc4c(c3)CCC(=O)N4)nc2c1` [Compound 90, 2-[(2-oxo-3,4-dihydro-1H-quinolin-6-yl)amino]quinoline-7-carbonitrile], the IC50 on mALDH1a3 and on ALDH1a3 was over 5000 nM throughout.

With `Cc1ccc2ccc(Nc3ccc4c(c3)CCC(=O)N4)nc2c1` [Compound 91, 6-[(7-methyl-2-quinolyl)amino]-3,4-dihydro-1H-quinolin-2-one], the figures for the IC50 on mALDH1a3 and on ALDH1a3 were 1000 to 5000 nM and over 5000 nM, respectively.
